The results in this text go back to BindingDB's records for doi:10.1016/j.bmcl.2004.01.021 (Atherogenics, 2004).

This assay addresses T1, Tumor necrosis factor receptor superfamily member 1A (Homo sapiens, UniProt P19438).
T1 sequence (P19438 whole entry): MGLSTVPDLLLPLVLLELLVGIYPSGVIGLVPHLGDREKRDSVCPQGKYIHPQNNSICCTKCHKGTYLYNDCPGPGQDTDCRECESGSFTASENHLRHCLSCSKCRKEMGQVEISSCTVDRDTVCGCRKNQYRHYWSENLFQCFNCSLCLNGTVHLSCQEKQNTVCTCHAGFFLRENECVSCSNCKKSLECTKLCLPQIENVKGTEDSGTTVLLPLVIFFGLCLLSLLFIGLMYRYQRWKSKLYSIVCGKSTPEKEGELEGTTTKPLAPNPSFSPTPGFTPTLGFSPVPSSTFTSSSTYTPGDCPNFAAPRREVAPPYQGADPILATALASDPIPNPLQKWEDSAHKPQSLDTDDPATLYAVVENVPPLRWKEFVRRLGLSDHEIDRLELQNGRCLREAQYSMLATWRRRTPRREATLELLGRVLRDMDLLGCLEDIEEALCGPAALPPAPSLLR
Kind of assay: ChEBML_224214. An excerpt: Inhibition of TNF-alpha-induced VCAM-1 expression
In general, IC50 refers to the point on the concentration scale where inhibition reaches its midpoint. A higher IC50 goes with lower potency. Regarding `COc1ccc(-c2cccs2)cc1/C=C/C(=O)c1ccc2c(c1)OCO2` [(E)-1-Benzo[1,3]dioxol-5-yl-3-(2-methoxy-5-thiophen-2-yl-phenyl)-propenone], the IC50 came to 4 µM. Under `COc1ccc(-c2cc(C)cs2)cc1/C=C/C(=O)c1ccc2c(c1)OCO2` [(E)-1-Benzo[1,3]dioxol-5-yl-3-[2-methoxy-5-(4-methyl-thiophen-2-yl)-phenyl]-propenone] stands 4 µM; under `COc1ccc(-c2ccc(C)s2)cc1/C=C/C(=O)c1ccc2c(c1)OCO2` [(E)-1-Benzo[1,3]dioxol-5-yl-3-[2-methoxy-5-(5-methyl-thiophen-2-yl)-phenyl]-propenone], 3 µM; under `COCCOc1c(OC)cc(C(=O)/C=C/c2cc(OC)c(OC)c(OC)c2)cc1OC` [(E)-1-[3,5-Dimethoxy-4-(2-methoxy-ethoxy)-phenyl]-3-(3,4,5-trimethoxy-phenyl)-propenone], 5 µM. In the case of `COc1cc(/C=C/C(=O)c2cc(OC)c(OCc3cc(OC)c(OC)c(OC)c3)c(OC)c2)cc(OC)c1OC` [(E)-1-[3,5-Dimethoxy-4-(3,4,5-trimethoxy-benzyloxy)-phenyl]-3-(3,4,5-trimethoxy-phenyl)-propenone] it was 3 µM; in that of `COC1=C(c2c(OC)cc(C(=O)/C=C/c3cc(OC)c(OC)c(OC)c3)cc2OC)Oc2ccccc2O1` [(E)-1-[3,5-Dimethoxy-4-(3-methoxy-benzo[1,4]dioxin-2-yl)-phenyl]-3-(3,4,5-trimethoxy-phenyl)-propenone], 2 µM; in that of `COc1ccc(COc2c(OC)cc(C(=O)/C=C/c3cc(OC)c(OC)c(OC)c3)cc2OC)cc1` [(E)-1-[3,5-Dimethoxy-4-(4-methoxy-benzyloxy)-phenyl]-3-(3,4,5-trimethoxy-phenyl)-propenone], 1 µM. Under `COc1cc(/C=C/C(=O)c2cc(OC)c(OCc3cccs3)c(OC)c2)cc(OC)c1OC` [(E)-1-[3,5-Dimethoxy-4-(thiophen-2-ylmethoxy)-phenyl]-3-(3,4,5-trimethoxy-phenyl)-propenone] stands 3 µM; under `COC1=C(c2ccc(C(=O)/C=C/c3cc(OC)c(OC)c(OC)c3)cc2OC)Oc2ccccc2O1` [(E)-1-[3-Methoxy-4-(3-methoxy-benzo[1,4]dioxin-2-yl)-phenyl]-3-(3,4,5-trimethoxy-phenyl)-propenone], 4 µM; under `COc1ccc(-c2cccs2)cc1/C=C/C(=O)c1ccc(OCc2ccccn2)c(OC)c1` [(E)-1-[3-Methoxy-4-(pyridin-2-ylmethoxy)-phenyl]-3-(2-methoxy-5-thiophen-2-yl-phenyl)-propenone], 3 µM. In turn, `COc1ccc(-c2cccs2)cc1/C=C/C(=O)c1ccc(OCc2cccnc2)c(OC)c1` [(E)-1-[3-Methoxy-4-(pyridin-3-ylmethoxy)-phenyl]-3-(2-methoxy-5-thiophen-2-yl-phenyl)-propenone] yielded an IC50 of 3 µM. In the case of `COc1ccc(-c2cccs2)cc1/C=C/C(=O)c1ccc(OCc2ccncc2)c(OC)c1` [(E)-1-[3-Methoxy-4-(pyridin-4-ylmethoxy)-phenyl]-3-(2-methoxy-5-thiophen-2-yl-phenyl)-propenone] it was 4 µM; in that of `COc1ccc(COc2c(OC)cc(C(=O)/C=C/c3cc(OC)c(OC)c(OC)c3)cc2OC)cc1OC` [(E)-1-[4-(3,4-Dimethoxy-benzyloxy)-3,5-dimethoxy-phenyl]-3-(3,4,5-trimethoxy-phenyl)-propenone], 2 µM; in that of `COc1ccc(COc2ccc(C(=O)/C=C/c3cc(OC)c(OC)c(OC)c3)cc2OC)cc1OC` [(E)-1-[4-(3,4-Dimethoxy-benzyloxy)-3-methoxy-phenyl]-3-(3,4,5-trimethoxy-phenyl)-propenone], 2 µM. With `COc1ccc(-c2cccs2)cc1/C=C/C(=O)c1ccc(OCc2ccc(N)cc2)c(OC)c1` [(E)-1-[4-(4-Amino-benzyloxy)-3-methoxy-phenyl]-3-(2-methoxy-5-thiophen-2-yl-phenyl)-propenone], the half-inhibitory concentration (IC50) came to 7 µM. Turning to `COc1cc(/C=C/C(=O)c2cc(OC)c(OCc3ccc4c(c3)OCO4)c(OC)c2)cc(OC)c1OC` [(E)-1-[4-(Benzo[1,3]dioxol-5-ylmethoxy)-3,5-dimethoxy-phenyl]-3-(3,4,5-trimethoxy-phenyl)-propenone], the IC50 was 3 µM. On to `COc1cc(/C=C/C(=O)c2cc(OC)c(OCc3ccco3)c(OC)c2)cc(OC)c1OC` [(E)-1-[4-(Furan-2-ylmethoxy)-3,5-dimethoxy-phenyl]-3-(3,4,5-trimethoxy-phenyl)-propenone], for which half-maximal inhibition (IC50) was put at 3 µM. In the case of `COc1cc(OC)c(-c2cccs2)cc1/C=C/C(=O)c1ccc(OC)c(OC)c1OC` [(E)-3-(2,4-Dimethoxy-5-thiophen-2-yl-phenyl)-1-(2,3,4-trimethoxy-phenyl)-propenone] it was 2 µM.

Regarding `COc1cc(OC)c(C(=O)/C=C/c2cc(-c3cccs3)ccc2OC)c(OC)c1` [(E)-3-(2-Methoxy-5-thiophen-2-yl-phenyl)-1-(2,4,6-trimethoxy-phenyl)-propenone], it took 3 µM to reach half-maximal inhibition (IC50). Under `COc1ccc(-c2cccs2)cc1/C=C/C(=O)c1cc(OC)c(OC)c(OC)c1` [(E)-3-(2-Methoxy-5-thiophen-2-yl-phenyl)-1-(3,4,5-trimethoxy-phenyl)-propenone] stands 3 µM; under `COc1ccc(-c2cccs2)cc1/C=C/C(=O)c1ccccc1` [(E)-3-(2-Methoxy-5-thiophen-2-yl-phenyl)-1-phenyl-propenone], 5 µM; under `COc1cc(-c2cccs2)ccc1C(=O)/C=C/c1ccc(F)c(F)c1` [(E)-3-(3,4-Difluoro-phenyl)-1-(2-methoxy-4-thiophen-2-yl-phenyl)-propenone], 2 µM. Under `COc1ccc(C(=O)/C=C/c2ccc(OC)c(OC)c2)cc1` [(E)-3-(3,4-Dimethoxy-phenyl)-1-(4-methoxy-phenyl)-propenone] stands 15 µM; under `CCOc1cc(OCC)c(C(=O)/C=C/c2cc(Br)c(OC)c(OC)c2)cc1OCC` [(E)-3-(3-Bromo-4,5-dimethoxy-phenyl)-1-(2,4,5-triethoxy-phenyl)-propenone], 15 µM; under `COc1cc(OC)c(C(=O)/C=C/c2cc(Br)c(OC)c(OC)c2)cc1OC` [(E)-3-(3-Bromo-4,5-dimethoxy-phenyl)-1-(2,4,5-trimethoxy-phenyl)-propenone], 2 µM. Regarding `COc1cc(/C=C/C(=O)c2cc(OC)c(OC)c(OC)c2)cc(Br)c1OC` [(E)-3-(3-Bromo-4,5-dimethoxy-phenyl)-1-(3,4,5-trimethoxy-phenyl)-propenone], the IC50 is 4 µM.

As for `CCOc1ccc(/C=C/C(=O)c2cc(-c3cccs3)ccc2OC)cc1F` [(E)-3-(4-Ethoxy-3-fluoro-phenyl)-1-(2-methoxy-5-thiophen-2-yl-phenyl)-propenone], 4 µM corresponded to half-maximal inhibition (IC50). For `COc1cc(C(=O)/C=C/c2ccc(-c3cccs3)cc2)cc(OC)c1OC` [(E)-3-(4-Thiophen-2-yl-phenyl)-1-(3,4,5-trimethoxy-phenyl)-propenone], the IC50 is 6 µM. In the case of `COc1cc(OC)c(-c2cc3ccccc3s2)cc1/C=C/C(=O)c1ccc(OC)c(OC)c1OC` [(E)-3-(5-Benzo[b]thiophen-2-yl-2,4-dimethoxy-phenyl)-1-(2,3,4-trimethoxy-phenyl)-propenone] it was 8 µM.

Compound `COc1cc(OC)c(-c2cc3ccccc3s2)cc1/C=C/C(=O)c1cc(OC)c(OC)c(OC)c1` [(E)-3-(5-Benzo[b]thiophen-2-yl-2,4-dimethoxy-phenyl)-1-(3,4,5-trimethoxy-phenyl)-propenone] gave an IC50 of 5 µM.

With `COc1cc(OC)c(-c2cc3ccccc3s2)cc1/C=C/C(=O)c1ccc(OC)c(OC)c1` [(E)-3-(5-Benzo[b]thiophen-2-yl-2,4-dimethoxy-phenyl)-1-(3,4-dimethoxy-phenyl)-propenone], it took 11 µM to reach half-maximal inhibition (IC50). In turn, `COc1cc(OC)c(-c2cc3ccccc3s2)cc1/C=C/C(=O)c1cc(OC)c(OCC2CC2)c(OC)c1` [(E)-3-(5-Benzo[b]thiophen-2-yl-2,4-dimethoxy-phenyl)-1-(4-cyclopropylmethoxy-3,5-dimethoxy-phenyl)-propenone] yielded an IC50 above 50 µM. In the case of `COc1cc(OC)c(-c2cc3ccccc3s2)cc1/C=C/C(=O)c1cc(OC)c(O)c(OC)c1` [(E)-3-(5-Benzo[b]thiophen-2-yl-2,4-dimethoxy-phenyl)-1-(4-hydroxy-3,5-dimethoxy-phenyl)-propenone] it was 1 µM; in that of `COc1cc(OC)c(-c2cc3ccccc3s2)cc1/C=C/C(=O)c1ccc(NC2OC(CO)C(O)C(O)C2O)cc1` (configuration not stated) [(E)-3-(5-Benzo[b]thiophen-2-yl-2,4-dimethoxy-phenyl)-1-[4-(3,4,5-trihydroxy-6-hydroxymethyl-tetrahydro-pyran-2-ylamino)-phenyl]-propenone], 17 µM.

On to `COc1ccc(-c2cc3ccccc3s2)cc1/C=C/C(=O)c1cc(OC)c(OC)c(OC)c1` [(E)-3-(5-Benzo[b]thiophen-2-yl-2-methoxy-phenyl)-1-(3,4,5-trimethoxy-phenyl)-propenone], for which 2 µM corresponded to half-maximal inhibition (IC50). Against the preceding compound, the IC50 is about 8.5-fold lower.

In turn, `COc1ccc(-c2cc3ccccc3s2)cc1/C=C/C(=O)c1ccc(OC)c(OC)c1` [(E)-3-(5-Benzo[b]thiophen-2-yl-2-methoxy-phenyl)-1-(3,4-dimethoxy-phenyl)-propenone] came in with an IC50 of 2 µM.

The compound `COc1ccc(C(=O)/C=C/c2cc(-c3cc4ccccc4s3)ccc2OC)cc1` [(E)-3-(5-Benzo[b]thiophen-2-yl-2-methoxy-phenyl)-1-(4-methoxy-phenyl)-propenone] came in with an IC50 of 3 µM.
